Results taken from patent US12441693B2, “Targeting STAT sumoylation to enhance immune responses” (THE GEORGE WASHINGTON UNIVERSITY, priority 2018, dated 2025).
Where two headings read alike, the source gives them in different places.

Assays:
STAT5 = conditions: Bosque et al., Cell Rep. 2017; cited from earlier work
STAT1, STAT5, Mx1 = experiment: Western blot of primary CD4 T cells (pSTAT1, pSTAT5, Mx1); type: cell-based, human; conditions: increased concentrations
Procedure: In general, samples are prepared and loaded on to a gel and during the electrophoresis the negatively charged proteins move toward the positively charged anode. In order to further analyze the proteins, they are transferred onto a membrane in a procedure called blotting. After the transfer, the membrane is blocked in order to prevent unwanted membrane-protein interaction in the following steps. To visualize the protein of interest the membrane is commonly first probed using a primary protein-specific antibody followed by a labeled secondary antibody used for detection. An image is taken of the membrane and the result is analyzed.

NK cells [1] = experiment: In vitro expansion of NK cells with IL-2; type: cell-based, human; conditions: 500 IU/ml of IL-2, two HIV-negative donors
Source text: As for CD8 T cells, STATS play an important role in the expansion of NK cells. As such, it was hypothesized that inhibiting STAT SUMOylation may enhance the expansion of NK cells. This has important implications for adoptive cell immunotherapies as NK cells are increasingly becoming an attractive alternative to T cell therapies. In order to address whether inhibiting STAT SUMOylation may enhance NK proliferation in vitro, NK cells were isolated from two human HIV-negative donors and expanded using Miltenyi Biotec NK MACS Medium in the presence of 500 IU/ml of IL-2 and in the presence or absence of HODHBt.

NK cells [2] = tested on: NK cells
Procedure: To determine if STAT SUMOylation increases Gzm B expression in NK cells, isolated human NK cells were analyzed after a 3-day incubation with either IL-2, IL-15, HODHBt, IL-2+IL-15, HODHBt+IL-2, HODHBt+IL-15, or HODHBt+IL-2+IL-15.
To further characterize the effects of STAT SUMOylation inhibition in NK cell function, primary human NK cells were isolated and cultured with IL-15 in the presence or absence of HODHBt. 48 hours later, cells were phenotyped by flow cytometry.
To characterize the induction of other proteins known to be important for the cytolytic activity of NK cells, primary human NK cells were isolated from 6 male and 6 female donors and cultured with IL-15 in the presence or absence of HODHBt. 48 hours later, levels of Granzyme A (FIG. 18A), Perforin (FIG. 18B), Granulysin (FIG. 18C), TRAIL (FIG. 18D) and Fas ligand (FASL) (FIG. 18E) were analyzed by flow cytometry.
Antibody-dependent cell-mediated cytotoxicity (ADCC) is mediated by the recognition of an antibody bound to a cell through an Fc receptor present in NK cells, mostly CD16 (FCGR3A). To address whether inhibiting STAT SUMOylation alters CD16 expression in the surface of NK cells, freshly isolated NK cells were treated with either IL-15, HODHBt or a combination of both for 48 hours and surface expression of CD16 was measured by flow cytometry.
Since IL-15 activated STATs, it was hypothesized that STATs, and in particular STAT1, was controlling expression of CXCR5 (C—X—C Motif Chemokine Receptor 5) and that inhibiting STAT SUMOylation enhances CXCR5 expression and promotes migration towards a CXCL13 (C—X—C Motif Chemokine Ligand 13) gradient. CXCL13 controls homing of lymphocytes to follicles in lymph nodes; however whether this mechanism of regulation exists in human NK cells and whether IL-15 controls expression were unknown. To address which one of the two scenarios was potentially playing a role in the presence of NK cells within the follicles, human NK cells were treated with IL-15, HODHBt or a combination of both for 48 hours. Surface expression of CXCR5 and viability were next measured by flow cytometry.
To phenotype the cells, 1×10^5 cells were stained with a viability dye (Fixable Viability Dye eFluor 450, Affymetrix, eBioscience, San Diego, CA) and the surface marker-specific mAb specific for human: PE-anti-CD25 (Caltag, Burlingame, CA) and PE-anti-CD69 (Caltag, Burlingame, CA) followed by flow cytometric analysis in a BD FACScanto II flow cytometer using the FACSDiva software (Becton Dickinson, Mountain View, CA) and analyzed using FlowJo (Tree Star Inc., Ashland, OR).

O=c1c2ccccc2nnn1O [HODHBt]
phosphorylation and transcriptional activity of STAT5 (STAT5): enhance phosphorylation and the transcriptional activity of STAT5
levels of myxovirus resistance 1 (Mx1) (STAT1, STAT5, Mx1): increased the levels
levels of phosphorylated STAT1 and STAT5 (STAT1, STAT5, Mx1): increased the levels of phosphorylated STAT1 and STAT5
NK cell expansion (NK cells [1]): enhanced NK cell expansion in vitro
Gzm B expression in NK cells (percentage of cells and MFI) (NK cells [2]; 3-day incubation, with IL-2, IL-15 or both): increased Gzm B expression in NK cells treated with IL-2, IL-15 or a combination of both
surface expression of CD16 on NK cells (NK cells [2]; 48 hours, with or without IL-15): sufficient to increase the levels of CD16 expression in NK cells independent of the presence of IL-15
surface expression of CXCR5 on NK cells (NK cells [2]; IL-15 in the presence of HODHBt, 48 hours): dramatically increased in the presence of HODHBt
expression of GZMB in NK cells (NK cells [2]; combination of IL-15 and HODHBt, 48 hours): greatly increased the expression of GZMB
expression of Granzyme A, Perforin, Granulysin, TRAIL and FASL in NK cells (NK cells [2]; combination of IL-15 and HODHBt, vs IL-15 control, 48 hours): enhanced gene expression above IL-15 control
viability / survival of NK cells (NK cells [2]; human, 48 h): did not affect the viability of NK cells either alone or in combination with IL-15
surface expression of CD69 and CD25 on NK cells (NK cells [2]; in combination with IL-15, vs IL-15 alone, 48 hours): enhanced the expression of both surface markers over IL-15 alone
surface expression of CD25 on NK cells (NK cells [2]; single agent, 48 hours): did not change the surface expression
surface expression of CD69 on NK cells (NK cells [2]; single agent, 48 hours): did not change the surface expression of CD69
expression of GZMB in NK cells (NK cells [2]; single agent, vs media control, 48 hours): did not have any effect over media control
